Where a SMILES comes first, the peptide text is derived from it. Bridges are numbered along the chain shown (N, C = ends). [ ]: non-standard residue; d: D form. The star is where a group is joined. hPhe(3-Cl-4-CF3) = N[C@@H](CCc1ccc(C(F)(F)F)c(Cl)c1)C(=O)O; NPrPhe(4-CF3) = CCCN[C@@H](Cc1ccc(C(F)(F)F)cc1)C(=O)O; NMeGly(cPent) = CN[C@H](C(=O)O)C1CCCC1; Pro(4,4-Me2) = CC1(C)CN[C@H](C(=O)O)C1; Pro(4S-Me) = C[C@@H]1CN[C@H](C(=O)O)C1; Hyp = O=C(O)[C@@H]1C[C@@H](O)CN1; NMeD = CN[C@@H](CC(=O)O)C(=O)O; NMeL = CN[C@@H](CC(C)C)C(=O)O; Morpholide = C1CN(*)CCO1; Ac5c = NC1(C(=O)O)CCCC1; Aze = O=C(O)[C@@H]1CCN1; Ac4c = NC1(C(=O)O)CCC1; NEtG = CCNCC(=O)O; Sar = CNCC(=O)O

The target in test [1] is GDP-bound HRAS wild-type protein (Homo sapiens, UniProt P01112). The test can be described thus: Binding to HRAS by surface plasmon resonance (SPR), Single Cycle Kinetics. The following applies: KD ratio HRAS/KRAS, SPR.
GDP-bound HRAS wild-type protein, sequence (P01112 whole entry): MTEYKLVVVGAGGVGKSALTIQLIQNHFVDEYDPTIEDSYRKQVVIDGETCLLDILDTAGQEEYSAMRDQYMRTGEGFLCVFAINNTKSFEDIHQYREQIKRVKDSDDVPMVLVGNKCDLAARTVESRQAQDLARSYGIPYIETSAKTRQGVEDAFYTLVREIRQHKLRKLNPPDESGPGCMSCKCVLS
Test [2] concerns the target GDP-bound NRAS wild-type protein (Homo sapiens, UniProt P01111). The test can be described thus: Binding to NRAS by surface plasmon resonance (SPR), Single Cycle Kinetics. The note with it: KD ratio NRAS/KRAS, SPR. (In general: SPR reads the build-up and loss of mass on a sensor chip optically.)

GDP-bound NRAS wild-type protein, sequence (P01111 whole entry): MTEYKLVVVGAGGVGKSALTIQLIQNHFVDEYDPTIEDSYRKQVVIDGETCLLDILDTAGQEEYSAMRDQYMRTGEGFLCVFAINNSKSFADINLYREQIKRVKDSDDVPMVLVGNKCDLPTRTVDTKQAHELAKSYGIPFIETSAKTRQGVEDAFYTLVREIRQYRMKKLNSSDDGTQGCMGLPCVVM

As for `CCCN1C(=O)[C@@H]2CCN2C(=O)CN(C)C(=O)[C@H]([C@@H](C)CC)NC(=O)[C@H](CC(C)C)N(C)C(=O)C[C@@H](C(=O)N(C)C)N(C)C(=O)[C@H](C2CCCC2)N(C)C(=O)C2(CCC2)NC(=O)[C@@H]2C[C@@H](OCC)CN2C(=O)[C@H](CCc2ccc(C(F)(F)F)c(Cl)c2)NC(=O)CN(C)C(=O)[C@@H]1Cc1ccc(C(F)(F)F)cc1` [PP0445] ([NMeL]I[Sar][Aze][NPrPhe(4-CF3)][Sar][hPhe(3-Cl-4-CF3)][Hyp](Et)[Ac4c][NMeGly(cPent)][NMeD]-NMe2; lactam N-11), the “HRAS/KRAS (ratio of KD value with respect to GDP-bound HRAS wild-type protein to KD value with respect to KRAS)” value in test [1] was “C (A compound having a KD ratio of 0.1 or more and less than 3 is denoted as C)”. Moreover, in test [2], the “NRAS/KRAS (ratio of KD value with respect to GDP-bound NRAS wild-type protein to KD value with respect to KRAS)” value is “C (A compound having a KD ratio of 0.1 or more and less than 3 is denoted as C)”.

For `CCCN1C(=O)CN(C)C(=O)CN(C)C(=O)[C@H]([C@@H](C)CC)NC(=O)[C@H](CC(C)C)N(C)C(=O)C[C@@H](C(=O)N2CCOCC2)N(C)C(=O)[C@H](C2CCCC2)N(C)C(=O)C2(CCCC2)NC(=O)[C@@H]2CC(C)(C)CN2C(=O)[C@H](CCc2ccc(C(F)(F)F)c(Cl)c2)NC(=O)CN(C)C(=O)[C@@H]1Cc1ccc(C(F)(F)F)cc1` [PP0446] ([NMeL]I[Sar][Sar][NPrPhe(4-CF3)][Sar][hPhe(3-Cl-4-CF3)][Pro(4,4-Me2)][Ac5c][NMeGly(cPent)][NMeD]-Morpholide; lactam N-11), the “HRAS/KRAS (ratio of KD value with respect to GDP-bound HRAS wild-type protein to KD value with respect to KRAS)” value in test [1] was “C (A compound having a KD ratio of 0.1 or more and less than 3 is denoted as C)”. Further, in test [2], the “NRAS/KRAS (ratio of KD value with respect to GDP-bound NRAS wild-type protein to KD value with respect to KRAS)” value is “B (a compound having 3 or more and less than 10 is denoted as B)”.

Regarding `CCCN1C(=O)CN(C)C(=O)CN(C)C(=O)[C@H]([C@@H](C)CC)NC(=O)[C@H](CC(C)C)N(C)C(=O)C[C@@H](C(=O)N2CCOCC2)N(C)C(=O)[C@H](C2CCCC2)N(C)C(=O)C2(CCCC2)NC(=O)[C@@H]2C[C@H](C)CN2C(=O)[C@H](CCc2ccc(C(F)(F)F)c(Cl)c2)NC(=O)CN(C)C(=O)[C@@H]1Cc1ccc(C(F)(F)F)cc1` [PP0447] ([NMeL]I[Sar][Sar][NPrPhe(4-CF3)][Sar][hPhe(3-Cl-4-CF3)][Pro(4S-Me)][Ac5c][NMeGly(cPent)][NMeD]-Morpholide; lactam N-11), the “HRAS/KRAS (ratio of KD value with respect to GDP-bound HRAS wild-type protein to KD value with respect to KRAS)” value in test [1] is “C (A compound having a KD ratio of 0.1 or more and less than 3 is denoted as C)”. In addition, the “NRAS/KRAS (ratio of KD value with respect to GDP-bound NRAS wild-type protein to KD value with respect to KRAS)” value in test [2] is “B (a compound having 3 or more and less than 10 is denoted as B)”.

Take `CCCN1C(=O)CN(C)C(=O)CNC(=O)[C@H]([C@@H](C)CC)NC(=O)[C@H](CC(C)C)N(C)C(=O)C[C@@H](C(=O)N2CCOCC2)N(C)C(=O)[C@H](C2CCCC2)N(C)C(=O)C2(CCCC2)NC(=O)[C@@H]2CC(C)(C)CN2C(=O)[C@H](CCc2ccc(C(F)(F)F)c(Cl)c2)NC(=O)CN(C)C(=O)[C@@H]1Cc1ccc(C(F)(F)F)cc1` [PP0448] ([NMeL]IG[Sar][NPrPhe(4-CF3)][Sar][hPhe(3-Cl-4-CF3)][Pro(4,4-Me2)][Ac5c][NMeGly(cPent)][NMeD]-Morpholide; lactam N-11): in test [1], the “HRAS/KRAS (ratio of KD value with respect to GDP-bound HRAS wild-type protein to KD value with respect to KRAS)” value is “C (A compound having a KD ratio of 0.1 or more and less than 3 is denoted as C)”. In test [2], the “NRAS/KRAS (ratio of KD value with respect to GDP-bound NRAS wild-type protein to KD value with respect to KRAS)” value is “B (a compound having 3 or more and less than 10 is denoted as B)”.

For `CCCN1C(=O)CN(C)C(=O)CNC(=O)[C@H]([C@@H](C)CC)NC(=O)[C@H](CC(C)C)N(C)C(=O)C[C@@H](C(=O)N2CCOCC2)N(C)C(=O)[C@H](C2CCCC2)N(C)C(=O)C2(CCCC2)NC(=O)[C@@H]2C[C@H](C)CN2C(=O)[C@H](CCc2ccc(C(F)(F)F)c(Cl)c2)NC(=O)CN(C)C(=O)[C@@H]1Cc1ccc(C(F)(F)F)cc1` [PP0449] ([NMeL]IG[Sar][NPrPhe(4-CF3)][Sar][hPhe(3-Cl-4-CF3)][Pro(4S-Me)][Ac5c][NMeGly(cPent)][NMeD]-Morpholide; lactam N-11), the “HRAS/KRAS (ratio of KD value with respect to GDP-bound HRAS wild-type protein to KD value with respect to KRAS)” value in test [1] is “C (A compound having a KD ratio of 0.1 or more and less than 3 is denoted as C)”. In test [2], the “NRAS/KRAS (ratio of KD value with respect to GDP-bound NRAS wild-type protein to KD value with respect to KRAS)” value was “C (A compound having a KD ratio of 0.1 or more and less than 3 is denoted as C)”.

`CCCN1C(=O)CN(C)C(=O)CN(CC)C(=O)[C@H]([C@@H](C)CC)NC(=O)[C@H](CC(C)C)N(C)C(=O)C[C@@H](C(=O)N2CCOCC2)N(C)C(=O)[C@H](C2CCCC2)N(C)C(=O)C2(CCCC2)NC(=O)[C@@H]2CC(C)(C)CN2C(=O)[C@H](CCc2ccc(C(F)(F)F)c(Cl)c2)NC(=O)CN(C)C(=O)[C@@H]1Cc1ccc(C(F)(F)F)cc1` [PP0450] ([NMeL]I[NEtG][Sar][NPrPhe(4-CF3)][Sar][hPhe(3-Cl-4-CF3)][Pro(4,4-Me2)][Ac5c][NMeGly(cPent)][NMeD]-Morpholide; lactam N-11): the “HRAS/KRAS (ratio of KD value with respect to GDP-bound HRAS wild-type protein to KD value with respect to KRAS)” value in test [1] is “C (A compound having a KD ratio of 0.1 or more and less than 3 is denoted as C)”. In test [2], the “NRAS/KRAS (ratio of KD value with respect to GDP-bound NRAS wild-type protein to KD value with respect to KRAS)” value was “B (a compound having 3 or more and less than 10 is denoted as B)”.

These data come from patent US20250230193A1, “CYCLIC COMPOUND HAVING SELECTIVE KRAS INHIBITORY EFFECT ON HRAS AND NRAS” (CHUGAI SEIYAKU KABUSHIKI KAISHA, priority 2022, published 2025).
